How the values were obtained:
Assay in all cases: relative viability (nuclei count vs DMSO), 5 days (fraction); higher = more cells survive
Quizartinib + Olaparib = compound: CC(C)(C)c1cc(NC(=O)Nc2ccc(-c3cn4c(n3)sc3cc(OCCN5CCOCC5)ccc34)cc2)no1 [Quizartinib] + O=C(c1cc(Cc2n[nH]c(=O)c3ccccc23)ccc1F)N1CCN(C(=O)C2CC2)CC1 [Olaparib] (partner 8 µM)
Summary of the method: (§1)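 A single step with final 0.05% Triton X-100, 1% formaldehyde and 1 ug/ml Hoechst fixed the cells and stained nuclei 5 days after treatment. Lung cancer cell lines in 1536-well plates had been treated by pin tool the day after seeding with one drug alone or a fixed anchor-drug dose plus five library-drug doses (not always all listed) in √10 steps, and nuclei were counted on 4× images. Relative viability is the ratio of nuclei in treated wells to nuclei in vehicle wells, taken as the median of duplicate plates.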

YM155 + Bortezomib = compound: COCC[n+]1c2c(n(Cc3cnccn3)c1C)C(=O)c1ccccc1C2=O [YM155] + CC(C)C[C@H](NC(=O)[C@H](Cc1ccccc1)NC(=O)c1cnccn1)B(O)O [Bortezomib] (partner 0.002 µM)
Summary of the method: as §1

YM155 + Linsitinib = compound: COCC[n+]1c2c(n(Cc3cnccn3)c1C)C(=O)c1ccccc1C2=O [YM155] + C[C@]1(O)C[C@@H](c2nc(-c3ccc4ccc(-c5ccccc5)nc4c3)c3c(N)nccn32)C1 [Linsitinib] (partner 1 µM)
Summary of the method: as §1

Quizartinib + Alpelisib = compound: CC(C)(C)c1cc(NC(=O)Nc2ccc(-c3cn4c(n3)sc3cc(OCCN5CCOCC5)ccc34)cc2)no1 [Quizartinib] + Cc1nc(NC(=O)N2CCC[C@H]2C(N)=O)sc1-c1ccnc(C(C)(C)C(F)(F)F)c1 [Alpelisib] (partner 2 µM)
Summary of the method: as §1

Cell Line	relative viability (Quizartinib + Olaparib; first compound 0.001 µM)	relative viability (Quizartinib + Olaparib; first compound 0.003162 µM)	relative viability (Quizartinib + Olaparib; first compound 0.01 µM)	relative viability (Quizartinib + Olaparib; first compound 0.03162 µM)	relative viability (Quizartinib + Olaparib; first compound 0.1 µM)	relative viability (YM155 + Bortezomib; first compound 0.002 µM)	relative viability (YM155 + Bortezomib; first compound 0.006325 µM)	relative viability (YM155 + Bortezomib; first compound 0.02 µM)	relative viability (YM155 + Bortezomib; first compound 0.06325 µM)	relative viability (YM155 + Linsitinib; first compound 0.002 µM)	relative viability (YM155 + Linsitinib; first compound 0.006325 µM)	relative viability (YM155 + Linsitinib; first compound 0.02 µM)	relative viability (YM155 + Linsitinib; first compound 0.06325 µM)	relative viability (Quizartinib + Alpelisib; first compound 0.003162 µM)	relative viability (Quizartinib + Alpelisib; first compound 0.01 µM)	relative viability (Quizartinib + Alpelisib; first compound 0.03162 µM)	relative viability (Quizartinib + Alpelisib; first compound 0.1 µM)	relative viability (Quizartinib + Alpelisib; first compound 0.001 µM)
NCI-H23	0.273	0.269	0.372	0.279	0.264	0.7	1.05	0.929	0.455	0.54	0.595	0.598	0.295	0.556	0.679	0.645	0.687	
NCI-H322M	0.769	0.721	0.739	0.678	0.825	1.22	1.18	1.19	1.37	0.762	0.929	0.917	1.01	0.779	0.799	0.758	0.787	0.707
NCI-H441	0.441	0.558	0.646	0.434	0.683	0.452	0.407	0.466	0.446	0.461	0.486	0.557	0.353	0.541	0.885	0.733	0.779	0.656
NCI-H460		0.377	0.573	0.336	0.429	0.991	1.24	1.19	1.04	0.778	0.936	0.735	0.517	0.458	0.463		0.406	0.358
NCI-H520		0.308	0.367	0.352	0.29	0.586	0.62	0.653	1	0.895	1.13	1.04	0.957	0.768	0.929	0.837	0.597	0.792
NCI-H596	0.728	0.636	0.732	0.658	0.717		1.18	0.946	1.19		1.05	1.07	1.07	0.498	1.34	0.407	0.396	0.521
NCI-H647	0.622	0.507	0.669	0.499	0.585	0.777	1	0.826	0.792	1.11	1.37	0.996	0.857	1.06	1.25	1.13	1.33	1.01
NCI-H650	0.373	0.334	0.44	0.4	0.474	1.02	0.771	1.08	0.871	0.721	0.857	0.966	0.784	1.12	1.14	1.14	1.14	1.02
NCI-H661	0.727	0.712	0.751	0.733	0.723	0.894	0.983	0.835	0.848	0.697	0.699	0.54	0.598	0.708	0.384	0.565	0.905	0.594
NCI-H727	0.66	0.678	0.843	0.708	0.769	0.88	0.771	0.924	0.977	0.28	0.321	0.28	0.364		0.588	0.586	0.556	0.482
NCI-H838	0.641	0.683	0.77	0.678	0.361	0.94	1.01	0.958	0.817	0.935	0.997	1.03	0.485	0.942	0.958	0.968	0.593	0.876
NCI-H1299	0.949	0.967	0.987	0.995	0.984	1.02	1.01	1	1	1	0.962	1	0.88	1.01	1.11	1.06	0.986	
NCI-H1355	0.659	0.737	0.761	0.748	0.679	1.11	1.27	1.25	1.22	0.821	0.832	0.948	0.875	0.927	0.812	0.865	0.827	0.814
NCI-H1437	0.613	0.587	0.627	0.584	0.468	0.501	0.501	0.516	0.519	0.994	1.05	0.989	0.878	0.883	1.13	0.749	0.711	0.911
NCI-H1651	0.163	0.174	0.192	0.186	0.177	0.937	0.946	0.897	0.961	1.04	0.94	1	0.642	0.872	1.04	0.751	0.904	0.749
NCI-H1666	0.704	0.713	0.662	0.678	0.853	0.644		0.815	0.718	0.88		1.01	0.578	0.956	1.03	0.742	1.02	0.793
NCI-H1703	0.488	0.306	0.2	0.166	0.307	0.283	0.323	0.322	0.198	0.474	1.25	0.622	0.411	0.196	0.209	0.182	0.22	0.34
NCI-H1734	0.587	0.557	0.625	0.605	0.642	1	0.818	1.04	0.99	0.916	0.811	0.889	0.979	0.716	0.642	0.699	0.665	0.561
